Measured values reported in US9409906B2, “Pyrimido[4,5-B]indole derivatives and use thereof in the expansion of hematopoietic stem cells” (UNIVERSITÉ DE MONTRÉAL, priority 2012, dated 2016).
Each block holds one compound with its values, some of them ahead of it.

Columns and labels:
CD34+CD45RA− cells = assay: Dose-response assay: 50% increase in CD34+CD45RA− cell count vs vehicle (EC50); type: cell-based, human; conditions: concentration giving 50% increase in CD34+CD45RA− cell count vs vehicle (DMSO), dose-response 1 nM to 5000 nM; for EC50: Homo sapiens, read-out: Biological data (EC50)*
Procedure: The following biological assays were used to assess the effect of the compounds of the invention on hematopoietic stem cell expansion. Culture medium: The culture medium used consisted of serum-free medium supplemented with the following recombinant cytokines: interleukin-6, thrombopoietin, Flt-3 ligand, and stem cell factor, each at a final concentration of 100 ng/ml, in the presence of vehicle (DMSO), positive control (SR1), or compound of the invention or a combination of compounds.

[1] = system: CD34+ mobilized peripheral blood (mPB) cells; assay: Ex vivo expansion of mobilized peripheral blood-derived CD34+ and CD34+CD45RA− cells (FIG. 5A); type: cell-based, human; conditions: 12-days culture
Source text: FIG. 5: A) Compound 1 expands mobilized peripheral blood-derived CD34+ and CD34+CD45RA− cell populations ex vivo. […] This observation was enhanced with the co-treatment with SR1.
[…]. The level of expansion is the same whether cultures are initiated with Compound 1, SR1, Compound 1+SR1, or control DMSO. […] […].

[2] = system: Mobilized peripheral blood CD34(+) cells; assay: Growth factor (Flt3, SCF, TPO) requirement / mitogen test (FIG. 3); type: cell-based, human
Procedure: FIG. 3: Flt3, SCF, and TPO are required for compound 1 mediated stem cell expansion. Mobilized peripheral blood CD34(+) cells were cultured for 7 days in the presence or absence of the growth factors (Flt3+SCF+TPO).
This indicate that akin to SR1, Compound 1's effect on maintenance of primitive HSC phenotype ex vivo is not due to a mitogenic effect on this population but rather on the prevention of cell differentiation.

[3] = system: CD34+ mPB cells transplanted in NSG mice; assay: Engraftment of cultured CD34+ mPB cells in NSG mice; conditions: cells cultured ten days; outcome of 50,000 and 500,000 cells; 13 week post-transplantation
[4] = system: CD34+ CB cells transplanted in NSG mice; assay: Engraftment of cultured CD34+ cord blood cells in NSG mice (FIG. 7); conditions: outcome of 5,000 CD34+ CB cells, 7 days culture; 8-weeks post transplantation (FIG. 7A)
Source text: These experiments were done in short term cultures i.e. 7 days.

[5] = system: CD34+ mobilized peripheral blood cells; assay: FACS analysis of differentiation of CD34+ mobilized peripheral blood cells (FIG. 4A); type: cell-based, human; conditions: 7 day expansion, optimal levels, vs DMSO control
Source text: FIG. 4A illustrates the impact of Compound 1 on mobilized peripheral blood cell differentiation. Following a 7 day expansion, a relatively pure (>85% CD34^+) population of mobilized peripheral blood was exposed to control the (DMSO) or Compound 1 or SR1 or Compound 1+SR1.

[6] = system: CD34+CD45RA− cord blood cells; assay: Ex vivo expansion of cord blood-derived CD34+ and CD34+CD45RA− cells (FIG. 5B, 5C); type: cell-based, human; conditions: cord blood

SMILES: COC(=O)c1ccc2c(c1)[nH]c1nc(Cc3cccc(C4(C(F)(F)F)N=N4)c3)nc(NCCCN(C)CCCNC(=O)CCCC[C@@H]3SC[C@@H]4NC(=O)N[C@@H]43)c12 [Compound 53, methyl 4-((3-(methyl(3-(5-((3aS,4S,6aR)-2-oxohexahydro-1H-thieno[3,4-d]imidazol-4-yl)pentanamido)propyl)amino)propyl)amino)-2-(3-(3-(trifluoromethyl)-3H-diazirin-3-yl)benzyl)-9H-pyrimido[4,5-b]indole-7-carboxylate]
Biological data (EC50)* (CD34+CD45RA− cells): F (F=compound showed >1.3 fold expansion)

SMILES: CC(C)n1cnc2c(NCCc3ccc(O)cc3)nc(-c3csc4ccccc34)nc21 [SR1, StemRegenin1, reference compound]
total cell count increase above the input [1]: about 20 fold
induction of cell proliferation in the absence of growth factors (Flt3, TPO, SCF) [2]: not able to induce cell proliferation
human hematopoietic engraftment (human CD45+ cells in BM) [3]: consistently better than DMSO
human CD45+ engraftment / reconstitution activity [4]: human CD45+ engraftment
loss of CD34 cell surface expression [5]: partly abrogated
expansion of CD34+CD45RA− cells ([6]; 12-days): less than 20 fold
total cell expansion vs DMSO (control) ([6]; twelve days): the same

EC50 (CD34+CD45RA− cells): < 100 nM
SMILES: COC(=O)c1ccc2c(c1)[nH]c1nc(Cc3ccccc3)nc(NCCCN(C)CCCNc3nc(Cc4ccccc4)nc4[nH]c5cc(C(=O)OC)ccc5c34)c12 [Compound 51, dimethyl 4,4′-(((methylazanediyl)bis(propane-3,1-diyl))bis(azanediyl))bis(2-benzyl-9H-pyrimido[4,5-b]indole-7-carboxylate)]

EC50 (CD34+CD45RA− cells): < 100 nM
SMILES: COC(=O)c1ccc2c(c1)[nH]c1nc(Cc3cccc(C(O)C(F)(F)F)c3)nc(NCCCN3CCCCC3)c12 (stereo not shown) [Compound 34, methyl 4-((3-(piperidin-1-yl)propyl)amino)-2-(3-(2,2,2-trifluoro-1-hydroxyethyl)benzyl)-9H-pyrimido[4,5-b]indole-7-carboxylate]
